Data taken from US20020132817A1, “Heterocyclic compounds, their production and use” (priority 1998, published 2002).

Target: T1, substance P receptor (Homo sapiens, UniProt P25103)
T1 construct: The receptor was prepared from human lymphoblast cells (IM-9); endogenous in cells; host or cells: IM-9 human lymphoblast cells (membrane preparation)
Assay: Radioligand receptor binding inhibitory activity using receptor from human lymphoblast cells (IM-9)
Settings: 125I-BHSP radioligand, receptor from IM-9 cells, 25° C. for 30 minutes
Method: Radioligand receptor binding inhibitory activity Binding inhibitory activity using receptor from human lymphoblast cells (IM-9)
The receptor was prepared from human lymphoblast cells (IM-9). IM-9 cells (2×10^5 cells/ml) were inoculated and incubated for 3 days (one liter), which was then subjected to centrifuge for 5 minutes at 500×g to obtain cell pellets. […] The residue was washed twice with 30 ml of the above-mentioned buffer, which was then preserved frozen (−80° C.) as a specimen of the receptor.
The specimen was suspended in a reaction buffer (50 mM Tri-HCl buffer (pH 7.4), 0.02% bovine serum albumin, 1 mM phenylmethylsulfonyl fluoride, […], […] bacitracin, 3 mM manganese chloride) and 100 ul portion was the suspension was used in the reaction. […] The amount of nonspecific binding was determined by adding substance P at a final concentration of 2×10^−6M. After the reaction, using a cell harvester (290 PHD, Cambridge Technology, Inc, U.S.A.), rapid filtration was carried out through a glass filter (GF/B, Whatman, U.S.A.) to stop the reaction. After washing three times with 250 ul of 50 mM of Tris-HCl buffer (pH 7.4) containing 0.02% bovine serum albumin, the radioactivity remaining on the filter was determined with a gamma counter. Before use, the filter was immersed in 0.1% polyethyleneimine for 24 hours and air-dried.

T1 sequence (P25103 whole entry): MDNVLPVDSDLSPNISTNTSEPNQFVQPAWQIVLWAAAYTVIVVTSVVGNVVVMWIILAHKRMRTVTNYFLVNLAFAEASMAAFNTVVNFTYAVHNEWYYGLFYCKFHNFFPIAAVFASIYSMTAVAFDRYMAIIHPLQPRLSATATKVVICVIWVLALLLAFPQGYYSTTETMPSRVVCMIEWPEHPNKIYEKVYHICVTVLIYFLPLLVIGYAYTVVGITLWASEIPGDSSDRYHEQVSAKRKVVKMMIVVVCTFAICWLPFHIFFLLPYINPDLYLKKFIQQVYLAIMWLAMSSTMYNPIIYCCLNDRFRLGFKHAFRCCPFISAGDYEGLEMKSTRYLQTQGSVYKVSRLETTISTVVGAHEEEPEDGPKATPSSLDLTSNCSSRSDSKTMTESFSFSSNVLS

Row | Compound | IC50
1 | CCOc1cc(CN2C[C@H](C)CCn3c(c(-c4ccc(C)cc4)c4cccnc4c3=O)C2=O)cc(OCC)c1 [Example 3, (9R)-7-(3,5-diethoxybenzyl)-6,7,8,9,10,11-hexahydro-9-methyl-5-(4-methylphenyl)-6,13-dioxo-13H-[1,4]diazosino[2,1-g][1,7]napththylidine] | 0.69 nM
2 | Cc1ccc(-c2c3n(c(=O)c4ncccc24)CC[C@@H](C)CN(Cc2cc(OC(C)C)cc(OC(C)C)c2)C3=O)cc1 [Example 4, (9R)-7-[3,5-di(1-methylethyloxy)benzyl)-6,7,8,9,10,11-hexahydro-9-methyl-5-(4-methylphenyl)-6,13-dioxo-13H-[1,4]diazosino[2,1-g[]1,7]napththylidine] | 0.17 nM
3 | C[C@@H]1CCn2c(c(-c3ccc(Cl)cc3)c3cccnc3c2=O)C(=O)N(Cc2cc(C(F)(F)F)cc(C(F)(F)F)c2)C1 [Example 6, (9R)-7-[3,5-bis(trifluoromethyl)benzyl]-5-(4-chlorophenyl)-6,7,8,9,10,11-hexahydro-9-methyl-6,13-dioxo-13H-[1,4]diazosino[2,1-g][1,7]napththylidine] | 0.13 nM
4 | C[C@@H]1CCn2c(c(-c3ccc(Cl)c(Cl)c3)c3cccnc3c2=O)C(=O)N(Cc2cc(C(F)(F)F)cc(C(F)(F)F)c2)C1 [Example 7] | 0.83 nM
5 | C[C@@H]1CCn2c(c(-c3ccc(F)cc3)c3cccnc3c2=O)C(=O)N(Cc2cc(C(F)(F)F)cc(C(F)(F)F)c2)C1 [Example 14, (9R)-7-[3,5-bis(trifluoromethyl)benzyl]-5-(4-fluorophenyl)-6,7,8,9,10,11-hexahydro-9-methyl-6,13-dioxo-13H-[1,4]diazosino[2,1-g][1,7]napththylidine] | 0.37 nM

Test system: not given
Assay: not given
Settings: not given

Row | Compound | melting point
6 | C[C@H]1COc2nccc(-c3ccccc3)c2C(=O)N(Cc2ccccc2)C1 [Reference Example 124, (R)-5-Benzyl-2,3,4,5-tetrahydro-3-methyl-6-oxo-7-phenyl-6H-pyrido[2,3-b][1,5]oxazocine] | 139 to 140 °C
7 | C[C@@H]1COc2nccc(-c3ccccc3)c2C(=O)N(Cc2cc(C(F)(F)F)cc(C(F)(F)F)c2)C1 [Reference Example 125, (S)-5-[3,5-Bis(trifluoromethyl)benzyl]-2,3,4,5-tetrahydro-3-methyl-6-oxo-7-phenyl-6H-pyrido[2,3-b][1,5]oxazocine] | 142 to 143 °C
8 | C[C@H]1COc2nccc(-c3ccccc3)c2C(=O)N(Cc2cc(C(F)(F)F)cc(C(F)(F)F)c2)C1 [Reference Example 126, (R)-5-[3,5-Bis(trifluoromethyl)benzyl]-2,3,4,5-tetrahydro-3-methyl-6-oxo-7-phenyl-6H-pyrido[2,3-b][1,5]oxazocine] | 142 to 143 °C
9 | Cc1ccc(-c2ccnc3c2C(=O)N(Cc2ccccc2)CCO3)cc1 [Reference Example 133, 4-Benzyl-2,3,4,5-tetrahydro-5-oxo-6-(4-methylphenyl)pyrido[3,2-f][1,4]oxazepine] | 203 to 204 °C
10 | Cc1ccc(-c2ccnc3c2C(=O)N(Cc2cc(C(F)(F)F)cc(C(F)(F)F)c2)CCO3)cc1 [Reference Example 134, 4-[3,5-Bis(trifluoromethyl)benzyl]2,3,4,5-tetrahydro-5-oxo-6-(4-methylphenyl)pyrido[3,2-f][1,4]oxazepine] | 212 to 213 °C
11 | Cc1ccc(-c2ccnc3c2C(=O)N(Cc2ccccc2)C[C@H](C)CO3)cc1 [Reference Example 135, (S)-5-Benzyl-2,3,4,5-tetrahydro-3-methyl-7-(4-methylphenyl)-6-oxo-6H-pyrido[2,3-b][1,5]oxazocine] | 148 to 149 °C
12 | Cc1ccc(-c2ccnc3c2C(=O)N(Cc2cc(C(F)(F)F)cc(C(F)(F)F)c2)C[C@H](C)CO3)cc1 [Reference Example 136, (S)-5-[3,5-Bis(trifluoromethyl)benzyl]2,3,4,5-tetrahydro-3-methyl-7-(4-methylphenyl)-6-oxo-6H-pyrido[2,3-b][1,5]oxazocine] | 159 to 160 °C
